PMC10488193, “Evaluation of the Chemical Stability, Membrane Permeability and Antiproliferative Activity of Cyclic Diarylheptanoids from European Hornbeam (Carpinus betulus L.)” (International Journal of Molecular Sciences, 2023)
“Also recorded” adds a separate entry of the source. Marks after values point to notes of the source that are not given here.

How the values were obtained:
[1] = Storage stability in solutions and hornbeam bark extracts (UHPLC-DAD); format: physicochemical; conditions: for k / t1/2: storage 23 weeks
Procedure: For the analysis of the samples from the chemical stability as well as the PAMPA studies, sample concentrations were determined using our previously developed ultrahigh-performance liquid chromatography–diode array detection (UHPLC-DAD) method validated for linearity, precision and accuracy. Briefly, an ACQUITY UPLC H-Class PLUS System hyphenated with a quaternary solvent delivery pump (QSM), an auto-sampler manager (FTN), a column compartment (CM) and a photodiode array (PDA) detector (Waters Corporation) was employed. Stationary phase: Acquity BEH C18 column (100 × 2.1 mm i.d., 1.7 µm; Waters Corporation), column temperature: 30 °C. The mobile phase consisted of 0.3% acetic acid in water (eluent A) and acetonitrile (eluent B). The following gradient elution was applied at a flow rate of 0.3 mL/min: 0 min 12.0% B, 19.0 min 13.5% B, 25.5 min 75.0% B, 26.0 min 100.0% B, 28.0 min 100.0% B, 28.5 min 12.0% B.
We used the following equations to calculate the first-order reaction rate constant (k) and the half-life (t1/2) indicating the time required to reduce the concentration of diarylheptanoids by 50% [29]:ln (ct/c0) = −k × t(1) t1/2 = −ln 0.5 × k^−1(2) where ct is the concentration of the diarylheptanoids at time t, c0 is the initial concentration, k is the reaction rate constant, t is the treatment time.
The chemical stability of the isolated compounds in solutions was examined at a concentration of 50 µg/mL in methanol and water (in the latter case using methanol as co-solvent, final composition: water-methanol 90:10, v/v). Furthermore, the methanol and ethyl acetate extracts of C. betulus bark (concentration 4 mg/mL) were also studied in order to assess the effects of the accompanying substances. The storage stability studies were performed at a neutral pH value. All solutions were filtered through Phenex-RC 15 mm, 0.2 μm syringe filters (Gen-Lab Ltd., Budapest, Hungary). The samples were prepared in triplicate and stored protected from light at 22 ± 2.0 °C, 5 ± 1.5 °C and −15 ± 2.0 °C for 23 weeks. Quantities of the analytes of interest were quantified at weeks 12 and 23 using the abovementioned UHPLC-DAD method (see Section 3.4).
The effects of the temperature and the medium (i.e., solvent and accompanying substances) were analysed through one-way analysis of variance (ANOVA) followed by Tukey’s post hoc HSD test (p < 0.05). To establish the kinetic parameters t1/2 and k, Equations (1) and (2) were applied, respectively.

[2] = test system: A2058 (melanoma, derived from metastatic site: lymph node); assay: In vitro antiproliferative activity, Alamar Blue assay; format: cell-based; conditions: Homo sapiens; A2058, 24 h treatment, then three days culture, n = 2; read-out: IC50 ± SD
Procedure: (§1) For the experiments, the following human cell lines were used: A2058 (melanoma, derived from metastatic site: lymph node), HepG2 (hepatocellular carcinoma), U87 (glioblastoma), HT-29 (colorectal carcinoma) and HL-60 (acute promyelocytic leukaemia). Cell lines were generous gifts from Dr. […] (Department of Experimental Pharmacology, National Institute of Oncology, Budapest, Hungary). […] The cultures were maintained at 37 °C in a humidified atmosphere with 5% CO2. The cells were grown to confluency and then divided into 96-well tissue culture plates (Sarstedt, Nümbrecht, Germany) with an initial cell number of 5000 cells/well. Cells were incubated at 37 °C in a 5% CO2 humidified atmosphere overnight. Before the assay, 50 μL of the supernatant was removed and replaced with a 50 μL serum-free medium (SFM). […] The cells were treated for 24 h with the compounds and negative control cells (no compound control) were treated with SFM only (incubated at 37 °C). […] The percentage of cytostasis was calculated with the following equation: […] Data were evaluated with Excel (version: 365; Microsoft, Redmond, WA, USA) and the curves were defined using Microcal OriginPro (version: 2018; OriginLab, Northampton, MA, USA) software. In each case, two independent experiments were carried out with four parallel measurements and the mean IC50 values together with ±SD were represented. The Excel (version: 365) (Microsoft, Redmond, WA, USA) and Microcal OriginPro (version: 2018) (OriginLab, Northampton, MA, USA) softwares were used for data evaluation.

U87 (glioblastoma) = assay: as above; format: cell-based; conditions: Homo sapiens; U87, 24 h treatment, then three days culture, n = 2; read-out: IC50 ± SD
Procedure: as §1

[3] = test system: HepG2 (hepatocellular carcinoma); assay: as above; format: cell-based; conditions: Homo sapiens; HepG2, 24 h treatment, then three days culture, n = 2; read-out: IC50 ± SD
Procedure: as §1

[4] = test system: HT-29 (colorectal carcinoma); assay: as above; format: cell-based; conditions: Homo sapiens; HT-29, 24 h treatment, then three days culture, n = 2; read-out: IC50 ± SD
Procedure: as §1

[5] = test system: HL-60 (acute promyelocytic leukaemia); assay: as above; format: cell-based; conditions: Homo sapiens; HL-60, 24 h treatment, then three days culture, n = 2; read-out: IC50 ± SD
Procedure: as §1

[6] = 12 weeks, 5 °C, EE (ethyl acetate extract of bark)
[7] = 12 weeks, 5 °C, EM (methanol extract of bark)
[8] = 12 weeks, 5 °C, SA (aqueous solution)
[9] = 12 weeks, 5 °C, SM (methanol solution)
[10] = 12 weeks, 22 °C, EE (ethyl acetate extract of bark)
[11] = 12 weeks, 22 °C, EM (methanol extract of bark)
[12] = 12 weeks, 22 °C, SA (aqueous solution)
[13] = 12 weeks, 22 °C, SM (methanol solution)
[14] = 12 weeks, −15 °C, EE (ethyl acetate extract of bark)
[15] = 12 weeks, −15 °C, EM (methanol extract of bark)
[16] = 12 weeks, −15 °C, SA (aqueous solution)
[17] = 12 weeks, −15 °C, SM (methanol solution)
[18] = 23 weeks, 5 °C, EE (ethyl acetate extract of bark)
[19] = 23 weeks, 5 °C, EM (methanol extract of bark)
[20] = 23 weeks, 5 °C, SA (aqueous solution)
[21] = 23 weeks, 5 °C, SM (methanol solution)
[22] = 23 weeks, 22 °C, EE (ethyl acetate extract of bark)
[23] = 23 weeks, 22 °C, EM (methanol extract of bark)
[24] = 23 weeks, 22 °C, SA (aqueous solution)
[25] = 23 weeks, 22 °C, SM (methanol solution)
[26] = 23 weeks, −15 °C, EE (ethyl acetate extract of bark)
[27] = 23 weeks, −15 °C, EM (methanol extract of bark)
[28] = 23 weeks, −15 °C, SA (aqueous solution)
[29] = 23 weeks, −15 °C, SM (methanol solution)

concentration as compared to the initial value [1, 6]	concentration as compared to the initial value [1, 7]	concentration as compared to the initial value [1, 8]	concentration as compared to the initial value [1, 9]	concentration as compared to the initial value [1, 10]	concentration as compared to the initial value [1, 11]	concentration as compared to the initial value [1, 12]	concentration as compared to the initial value [1, 13]	concentration as compared to the initial value [1, 14]	concentration as compared to the initial value [1, 15]	concentration as compared to the initial value [1, 16]	concentration as compared to the initial value [1, 17]	concentration as compared to the initial value [1, 18]	concentration as compared to the initial value [1, 19]	concentration as compared to the initial value [1, 20]	concentration as compared to the initial value [1, 21]	concentration as compared to the initial value [1, 22]	concentration as compared to the initial value [1, 23]	concentration as compared to the initial value [1, 25]	SMILES	concentration as compared to the initial value [1, 24]	further results
99.5 ± 0.4 ^#a %	99.9 ± 0.8 ^a %	99.9 ± 0.4 ^a %	99.4 ± 0.6 ^a %	100.2 ± 0.7 ^a %	101.1 ± 1.1 ^a %	100.4 ± 1.1 ^a %	99.7 ± 0.4 ^a %	100.1 ± 0.7 ^a %	99.8 ± 0.7 ^a %	99.1 ± 1.3 ^a %	99.1 ± 1.3 ^a %	100.1 ± 0.4 ^a %	99.2 ± 1.2 ^a %	99.9 ± 0.5 ^a %	99.2 ± 0.5 ^a %	99.7 ± 0.5 ^a %	99.7 ± 0.3 ^#a %	99.9 ± 0.6 ^a %	O=C1CCc2ccc(O)c(c2)-c2cc(ccc2O)C[C@H](O)[C@H](O)[C@H]1O [Compound 2, carpinontriol B]	99.8 ± 0.9 ^a %	concentration as compared to the initial value [1, 26]: 99.8 ± 0.4 ^a %; concentration as compared to the initial value [1, 27]: 99.6 ± 0.7 ^a %; concentration as compared to the initial value [1, 28]: 99.1 ± 1.2 ^a %; concentration as compared to the initial value [1, 29]: 99.1 ± 1.2 ^a %; storage stability in methanol and aqueous solutions (in words) ([1]; SM and SA, −15, 5, 22 °C, weeks 12 and 23): stable; also recorded: good stability; IC50 [2]: > 100 µM; IC50 (U87 (glioblastoma)): > 100 µM; IC50 [3]: > 100 µM; IC50 [4]: > 100 µM; IC50 [5]: > 100 µM
100.8 ± 0.5 ^#bcd %	100.2 ± 1.1 ^bcd %	99.3 ± 0.1 ^#bcd %	99.0 ± 0.1 ^#bcd %	101.6 ± 2.2 ^#bc %	102.7 ± 0.9 ^#bc %	96.2 ± 0.1 ^#bcd %	84.5 ± 7.4 ^#a %	103.5 ± 0.2 ^b %	101.6 ± 3.1 ^#bc %	100.1 ± 0.6 ^bcd %	100.4 ± 1.2 ^bcd %	100.9 ± 1.3 ^bcd %	93.8 ± 1.3 ^#de %	99.1 ± 0.1 ^#bcd %	81.9 ± 1.0 ^#a %	95.7 ± 0.5 ^#cd %	95.6 ± 2.4 ^#cd %	67.1 ± 7.5 %	O=C1CCc2ccc(O)c(c2)-c2cc(ccc2O)C[C@@H](O)[C@H](O)C1 [Compound 3, giffonin X]	87.6 ± 0.7 ^#ae %	k ([1]; 5 °C, SA (aqueous solution)): 5.0 × 10^−4 Week^−1; t1/2 ([1]; 5 °C, SA (aqueous solution)): 1386.29 Week; k ([1]; 5 °C, SM (methanol solution)): 7.10 × 10^−3 Week^−1; t1/2 ([1]; 5 °C, SM (methanol solution)): 97.63 Week; k ([1]; 22 °C, SA (aqueous solution)): 5.90 × 10^−3 Week^−1; t1/2 ([1]; 22 °C, SA (aqueous solution)): 117.48 Week; k ([1]; 22 °C, SM (methanol solution)): 1.85 × 10^−2 Week^−1; t1/2 ([1]; 22 °C, SM (methanol solution)): 37.47 Week; concentration as compared to the initial value [1, 26]: 101.1 ± 2.7 ^#bcd %; concentration as compared to the initial value [1, 27]: 97.6 ± 3.2 ^bcd %; concentration as compared to the initial value [1, 28]: 97.9 ± 2.9 ^bcd %; concentration as compared to the initial value [1, 29]: 95.8 ± 0.1 ^#cd %; k ([1]; −15 °C, SM (methanol solution)): 1.60 × 10^−3 Week^−1; t1/2 ([1]; −15 °C, SM (methanol solution)): 433.22 Week; IC50 [2]: > 100 µM; IC50 (U87 (glioblastoma)): > 100 µM; IC50 [3]: > 100 µM; IC50 [4]: > 100 µM; IC50 [5]: > 100 µM
